Two molecules from ChEMBL document CHEMBL3044635, “Effect of propiconazole and difenoconazole on the control of anthracnose of chilli fruits caused by Colletotrichum capsici” (Crop Prot, 2006) can be followed below.

The structures appear in SMILES notation. In brackets after ≈: the same amount, converted by molar mass.

For data set [1], the system named is Colletotrichum truncatum. As to the kind of experiment: Fungicidal activity against Colletotrichum capsici infected chilli plant assessed as percent disease index at 0.025% applied as spray on day 10 post inoculation and twice every 20 days measured on day 155 post sowing in green house conditions (reference value: 62.5 to 68.6%). The class given is functional.

Data set [2] deals with Colletotrichum truncatum. As to the kind of experiment: Fungicidal activity against Colletotrichum capsici assessed as reduction of polygalacturonase trans-eliminase production at 1 ug/ml incubated for 10 days measured up to 120 min by Ostwald-Fenske viscometric analysis (reference value: 40.8%). In kind it is functional. The arrangement: scale not given: the % may be the effect or the level left.

Data set [3] has as its system Colletotrichum truncatum. The data set is described as follows: Fungicidal activity against Colletotrichum capsici assessed as sporulation at 5 ug/ml incubated 16 hr photoperiod for 20 days by haemocytometer (reference value: 0.081 x 10^6 ml'-1). The class given is functional.
Data set [4] deals with Colletotrichum truncatum. The data set is described as follows: Fungicidal activity against Colletotrichum capsici assessed as linear growth at 50 ug/ml incubated 16 hr photoperiod for 20 days (reference value: 90 mm). In kind it is functional.
Data set [5] relates to Colletotrichum truncatum. As to the kind of experiment: Fungicidal activity against Colletotrichum capsici infected chilli plant assessed as fruit length measured per plot at 0.05% applied as spray on day 10 post inoculation and twice every 20 days measured on day 155 post sowing in field conditions (reference value: 8 to 8.7 cm). The class given is functional.
For data set [6], the system named is Colletotrichum truncatum. As to the kind of experiment: Fungicidal activity against Colletotrichum capsici assessed as spore germination at 5 ug/ml after 48 to 96 hr (reference value: 70.2 CFU). The class given is functional.
In data set [7] the test system is Colletotrichum truncatum. The data set is described as follows: Fungicidal activity against Colletotrichum capsici assessed as mycelial biomass at 10 ug/ml incubated 16 hr photoperiod for 20 days (reference value: 675 mg). In kind it is functional.
In data set [8] the test system is Colletotrichum truncatum. As to the kind of experiment: Fungicidal activity against Colletotrichum capsici infected chilli plant assessed as percent disease index at 0.05% applied as spray on day 10 post inoculation and twice every 20 days measured on day 155 post sowing in field conditions (reference value: 51 to 56.5%). In kind it is functional.
A further data set has as its system Capsicum annuum. The data set is described as follows: Phytotoxicity in Capsicum annuum (pepper) at 0.05% applied as spray. In kind it is organism-based. As to conditions: in vivo, other.
In data set [9] the test system is Colletotrichum truncatum. The data set is described as follows: Fungicidal activity against Colletotrichum capsici assessed as linear growth at 1 ug/ml incubated 16 hr photoperiod for 20 days (reference value: 90 mm). In kind it is functional.
Data set [10] relates to Colletotrichum truncatum. As to the kind of experiment: Fungicidal activity against Colletotrichum capsici assessed as linear growth at 0.5 ug/ml incubated 16 hr photoperiod for 20 days (reference value: 90 mm). The class given is functional.
Data set [11] has as its system Colletotrichum truncatum. The data set is described as follows: Fungicidal activity against Colletotrichum capsici infected chilli plant assessed as percent disease index at 0.1% applied as spray on day 10 post inoculation and twice every 20 days measured on day 155 post sowing in field conditions (reference value: 51 to 56.5%). In kind it is functional.
The test system of data set [12] is Colletotrichum truncatum. The data set is described as follows: Fungicidal activity against Colletotrichum capsici infected chilli plant assessed as percent disease index at 0.1% applied as spray on day 10 post inoculation and twice every 20 days measured on day 155 post sowing in green house conditions (reference value: 62.5 to 68.6%). The class given is functional.

In data set [13] the test system is Colletotrichum truncatum. The data set is described as follows: Fungicidal activity against Colletotrichum capsici assessed as spore germination at 5 ug/ml after 48 to 96 hr relative to control. In kind it is functional.
Data set [14] has as its system Colletotrichum truncatum. As to the kind of experiment: Fungicidal activity against Colletotrichum capsici infected chilli plant assessed as fruit mass measured per pot at 0.1% applied as spray on day 10 post inoculation and twice every 20 days measured on day 155 post sowing in green house conditions (reference value: 85.3 to 94.5 g). The class given is functional.

The test system of data set [15] is Colletotrichum truncatum. As to the kind of experiment: Fungicidal activity against Colletotrichum capsici infected chilli plant assessed as fruit yield measured per plot at 0.1% applied as spray on day 10 post inoculation and twice every 20 days measured on day 155 post sowing in field conditions (reference value: 8.25 to 9.3 kg). The class given is functional.

The test system of a further data set is Puccinia allii. The data set is described as follows: Fungicidal activity against Puccinia allii assessed as inhibition of spore germination. The class given is functional.
Data set [16] has as its system Colletotrichum truncatum. The data set is described as follows: Fungicidal activity against Colletotrichum capsici infected chilli plant assessed as fruit length at 0.1% applied as spray on day 10 post inoculation and twice every 20 days measured on day 155 post sowing in green house conditions (reference value: 6.8 to 7 cm). The class given is functional.
Data set [17] deals with Colletotrichum truncatum. The data set is described as follows: Fungicidal activity against Colletotrichum capsici infected chilli plant assessed as fruit length measured per plot at 0.1% applied as spray on day 10 post inoculation and twice every 20 days measured on day 155 post sowing in field conditions (reference value: 8 to 8.7 cm). In kind it is functional.

On to `CC1COC(Cn2cncn2)(c2ccc(Oc3ccc(Cl)cc3)cc2Cl)O1` (stereo not drawn) [DIFENOCONAZOLE], for which the results for the PDI in the data set with Colletotrichum truncatum [1] and in the data set with Colletotrichum truncatum [8] were 34.5% and 22%, respectively. The Activity is reported as 12.5% with Colletotrichum truncatum [2]; 0.37 ×10⁶ /ml in the data set with Colletotrichum truncatum [3]; 9 mm in the data set with Colletotrichum truncatum [4]; 9.2 cm in the data set on Colletotrichum truncatum [5]; 47 mg with Colletotrichum truncatum [7]; “Non-toxic” in the data set on Capsicum annuum. For the same molecule, the Activity in the data set on Colletotrichum truncatum [9] is 39.3 mm; in the data set with Colletotrichum truncatum [10], 48.5 mm. In the data set on Colletotrichum truncatum [6], the CFU worked out at 4.1.

As to `CCCC1COC(Cn2cncn2)(c2ccc(Cl)cc2Cl)O1` (stereo not drawn) [PROPICONAZOLE], the PDI in the data set with Colletotrichum truncatum [1] came to 33%; in the data set with Colletotrichum truncatum [11] it was 13.5%; with Colletotrichum truncatum [12], 17.5%; in the data set with Colletotrichum truncatum [8], 20.5%. The Activity in the data set on Colletotrichum truncatum [2] is 8.5%; in the data set with Colletotrichum truncatum [3], 0 ×10⁶ /ml; in the data set on Colletotrichum truncatum [4], 9 mm; in the data set on Colletotrichum truncatum [13], 0%; in the data set on Colletotrichum truncatum [5] it was 9.2 cm; in the data set on Colletotrichum truncatum [7], 0 mg. The Activity with Colletotrichum truncatum [16] was 8 cm; in the data set on Colletotrichum truncatum [9], 20.5 mm; in the data set on Colletotrichum truncatum [10], 39.2 mm; in the data set with Colletotrichum truncatum [17], 10.2 cm. The Crop_yield was found to be 165.6 g in the data set on Colletotrichum truncatum [14] and 17.5 kg with Colletotrichum truncatum [15]. Also, in the data set with Puccinia allii, the MIC is 50 µg/mL (≈ 146 µM).
